The record followed here is US20240209022A1, “NOVEL PEPTIDE HAVING ANTI-INFLAMMATORY AND TISSUE REGENERATIVE ACTIONS” (KOREA RESEARCH INSTITUTE OF BIOSCIENCE AND BIOTECHNOLOGY, priority 2020, published 2024).

Assay [1] concerns collagen induced arthritis (CIA) model. The assay can be described thus: Collagen induced arthritis (CIA) rheumatoid arthritis model. In kind it is in vivo, DBA/1J mice. The following applies: vs PBS buffer group; for thickness of the ankle joint: at the end of the experiment.
The subject of assay [2] is gastritis/gastric ulcer model. In words: HCl/ethanol gastritis/gastric ulcer model. The following applies: vs PBS buffer group; for degree of gastric mucosal damage (score): oral, 1 hour after HCl/ethanol. The assay is classed as in vivo, C57BL/6J mice. As to the method: For a gastritis/gastric ulcer model, 7-week-old male C57BL/6J mice were used, and from 3 days before induction, the peptides of the present invention were dissolved in PBS buffer and then orally administered to the mice by 150 μL per animal at the same time once a day. Amuc_1409 or PEP001, PEP002, PEP003, PEP004, or PEP005 was dissolved in PBS buffer at a concentration of 6.7 μM, and novel tetrapeptides PEP006, PEP007, PEP008, PEP009, and PEP010 and novel tripeptides PEP011, PEP012, and PEP013 were each dissolved in PBS buffer at a concentration of 0.15 μg/150 μL (PEP006) or 0.2 μg/150 μL (PEP007, PEP008, PEP009, PEP010, PEP011, PEP012, and PEP013). For the induction of acute gastritis/gastric ulcer, 0.3 M HCl/60% ethanol was orally administered to the mice by 0.2 mL for each, the tissue was harvested after 1 hour, photographs of the inner surface of the stomach were taken, and the degree of damage to the stomach was compared. Measurements of gastritis/gastric ulcer indexes were converted into scores according to the degree of mucosal damage. A score of 0 was given if there was no damage, a score of 1 was given to an insignificant circle-shaped hemorrhagic corrosion site of less than 5 mm, a score of 2 was given to a hemorrhagic corrosion site with a length more than 5 mm, and a score of 3 was given to one or more hemorrhagic corrosion sites corresponding to the score of 2, a score of 4 was given to a hemorrhagic corrosion of more than 5 mm in length and less than 2 mm in width, a score of 5 was given to 2 to 3 hemorrhagic corrosions corresponding to the score of 4, a score of 6 was given to 4 to 5 hemorrhagic corrosions corresponding to the score of 4, a score of 7 was given to 6 or more hemorrhagic corrosions corresponding to the score of 4, and a score of 8 was given if there was hemorrhagic corrosion throughout the gastric mucosa. In order to confirm additional anti-inflammatory activity of the administered peptides, mRNA expression of inflammation-related genes, Tnfα, Il-1β, iNos, Cox2, and Il-10, in the gastric mucosal tissue was examined.

The subject of assay [3] is depression and anxiety model. The assay can be described thus: LPS-induced depression and anxiety model (TST, FST, EPM). The following applies: vs PBS buffer group; for immobility time in forced swim test / immobility time in tail suspension test: oral, LPS-induced. In kind it is in vivo, C57BL/6J mice. On the procedure: By Daehan Biolink, 7-week-old male C57BL/6J mice weighing 20-22 g were supplied, and the animals were sufficiently supplied with solid feed and water until the day of the experiment, acclimatized for 1 week while maintaining an environment with a temperature of 22° C. 2° C., a humidity of 55%±15%, and a 12-hour light/dark cycle, and then used in the experiment. From 3 days before inducing depression and anxiety, the peptide was dissolved in PBS buffer and orally administered to the mice by 150 μL per animal at the same time once a day. Amuc_1409 or PEP001, PEP002, PEP003, PEP004, or PEP005 was dissolved in PBS buffer at a concentration of 6.7 μM and then used, and novel tetrapeptides PEP006, PEP007, PEP008, PEP009, and PEP010 and novel tripeptides PEP011, PEP012, and PEP013 were each dissolved in PBS buffer at a concentration of 0.2 μg/150 μL and then used. On the 3rd day of peptide administration, lipopolysaccharide (LPS) dissolved in PBS buffer was intraperitoneally injected at a concentration of 0.8 mg/kg to induce depression and anxiety. Tail suspension test (TST) and forced swim test (FST) were conducted to analyze the effect on depression. As the TST, a tail suspension device was installed in an open white acrylic box of 20 cm×25 cm×30 cm size, and the mouse was suspended upside down at a height where the mouse's tail would not touch the floor, and then the time for which the mouse maintained immobility while observing in the same environment was measured for 6 minutes. […] Water at around 25° C. was filled in a transparent acrylic cylinder (45 cm depth×18 cm diameter) up to 30 cm from the bottom, the mouse was exposed to water, and the time for which the mouse maintained immobility while swimming was measured for 6 minutes. […] An elevated plus-maze (EPM) test was performed to analyze the effect on anxiety level. The EPM device consists of two open arms (50 cm×10 cm) and two […] (50 cm×10 cm) at a height of 50 cm from the floor, and the arms are connected by a central area of 10 cm×10 cm. At the start of the experiment, the mouse was placed in the center of the maze and the time for which the mouse stayed in the open arm was measured for a total of 5 minutes using a video camera, and the percentage of time spent in the open arm was calculated and recorded [(time spent in open arm/time spent in open and closed arms)×100]. In addition, in order to examine the anti-inflammatory activity according to the administration of Amuc_1409 and PEP001, PEP002, PEP003, PEP004, and PEP005 in an animal model of depression and anxiety, the expression of Ifnγ and Il-10 mRNA, which are major inflammatory genes related to depression, in brain tissue (hippocampus) was examined.

“Also recorded” adds a separate entry of the source.

As for IGAY (PEP008), in assay [1], the “thickness of the ankle joint” value is given as “significantly decreased”, the “arthritis index (clinical score by date)” value is “significantly decreased from day 30 to day 32 after the first CII” and the “swelling of the hind paws by macrophotography” value (“swelling of the hind paws” below) is reported as “remarkably improved”. For the same molecule, in assay [2], the “degree of gastric mucosal damage (score)” value is on record as “decreased to a significant level”. Also, in assay [3], the “immobility time in forced swim test” value is “tended to decrease” and the “immobility time in tail suspension test” value was “decreased”.
On to RGAY (PEP007), for which, in assay [1], the “thickness of the ankle joint” value was “significantly decreased”, the “arthritis index (clinical score by date)” value is “significantly decreased from day 28 after the first CII injection to the experiment end day” and the “swelling of the hind paws” value is given as “remarkably improved”. The “degree of gastric mucosal damage (score)” value in assay [2] is on record as “decreased to a significant level”. In assay [3], the “immobility time in forced swim test” value is “tended to decrease” and the “immobility time in tail suspension test” value is reported as “decreased”.
On to AGS [PEP012], for which, in assay [1], the “thickness of the ankle joint” value is given as “significantly decreased”, the “arthritis index (clinical score by date)” value was “significantly decreased from day 32 after the first CII injection to the experiment end day” and the “swelling of the hind paws” value was “relieved overall”. Further, in assay [2], the “degree of gastric mucosal damage (score)” value was “significantly decreased”. For the same molecule, in assay [3], the “immobility time in forced swim test” value is recorded as “tended to decrease” and the “immobility time in tail suspension test” value is “decreased”.
On to SGAY (PEP009), for which, in assay [1], the “thickness of the ankle joint” value was “significantly decreased”, the “arthritis index (clinical score by date)” value is on record as “significantly decreased from day 30 after the first CII injection to the experiment end day” and the “swelling of the hind paws” value was “remarkably improved”. The “degree of gastric mucosal damage (score)” value in assay [2] is “decreased to a significant level”. In addition, in assay [3], the “immobility time in forced swim test” value is given as “tended to decrease” and the “immobility time in tail suspension test” value is listed as “decreased”.
AGAY (PEP006): in assay [1], the “thickness of the ankle joint” value is listed as “significantly decreased”, the “arthritis index (clinical score by date)” value is “significantly decreased on day 28 after the first injection of CII; also recorded: tended to decrease from day 30 to the experiment end day” and the “swelling of the hind paws” value is “remarkably improved”. Further, the “degree of gastric mucosal damage (score)” value in assay [2] is recorded as “significantly decreased”. Further, in assay [3], the “immobility time in forced swim test” value is “tended to decrease” and the “immobility time in tail suspension test” value is given as “decreased”.

B1: Amuc_1409: SEQ ID NO: 15, functional fragment obtained by eliminating the leader sequence from SEQ ID NO: 14; protein derived from Akkermansia muciniphila (protein)
chain: IPESSVPAAAVSSIKGAYPNAGPIEWDSEMHGMERIYEAEFRINGFQFDVKIAPDGKIVRIKEEIAASSLPEAVRASVLKRYPGCRIKEAEKITEGELVRYKVEVADSRDDYDVLIAPDGNILHVDR
modifications: Amuc_1409_fragment
notes: protein derived from Akkermansia muciniphila
As for B1, the arthritis index entry in assay [1] (after day 30 until the experiment end day) is “significantly decreased”. Moreover, in assay [1], the “thickness of the ankle joint” value is on record as “significantly decreased”; the “histopathological changes in hind paw tissue (H&E): inflammatory cell infiltration, synovial proliferation, pannus formation” value was “significantly diminished”; the “quantitative histopathological arthritis index” value is “significantly decreased or tended to decrease”; the “swelling of the hind paws” value is “reduced overall”. Besides, the arthritis index result in assay [1] (day 30 after the first CII injection) is “decreased close to a significant level”. Further, in assay [2] (RT-qPCR), the “Il-10 mRNA expression in gastric mucosal tissue” value is given as “increased”, the “Tnfα mRNA expression in gastric mucosal tissue” value is recorded as “significantly decreased” and the “iNos mRNA expression in gastric mucosal tissue” value is on record as “significantly decreased”. Besides, the “degree of gastric mucosal damage (score)” value in assay [2] is recorded as “significantly decreased”. In addition, in assay [3] (RT-qPCR), the “Ifnγ mRNA expression in brain tissue (hippocampus)” value is listed as “decreased” and the “Il-10 mRNA expression in brain tissue (hippocampus)” value was “increased”. Also, in assay [3], the “immobility time in forced swim test” value was “significantly decreased”; the “immobility time in tail suspension test” value is recorded as “significantly decreased”; the “time spent in the open arm, elevated plus-maze test” value is recorded as “increased”.
